From ChEMBL document CHEMBL1201862, “PubChem BioAssay data set” (2004)
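In this assay, cells in 96-well plates receive the compound at five concentrations for 48 hours. Endpoints are linearly interpolated between the surrounding concentrations. GI50: concentration for 50% inhibition of growth.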 Activity calls are given as the source filed them. No stated cut-off is given here; in the data, active = GI50 up to about 1.1 µM and inactive = higher.

Columns and labels:
Assay in all cases: DTP human tumour cell line panel, 48 h
ACHN = tested on: ACHN
BT-549 = tested on: BT-549
CAKI-1 = tested on: CAKI-1
CCRF-CEM = tested on: CCRF-CEM
DU-145 = tested on: DU-145
EKVX = tested on: EKVX
HCC 2998 = tested on: HCC 2998
HT-29 = tested on: HT-29
MCF7 = tested on: MCF7
MDA-MB-435 = tested on: MDA-MB-435
Malme-3M = tested on: Malme-3M
NCI-H23 = tested on: NCI-H23
NCI-H460 = tested on: NCI-H460
SF-268 = tested on: SF-268
SF-295 = tested on: SF-295
SK-MEL-28 = tested on: SK-MEL-28
TK-10 = tested on: TK-10
U-251 = tested on: U-251
UACC-62 = tested on: UACC-62
Hs-578T = tested on: Hs-578T

| Structure (SMILES) | GI50 (ACHN) | GI50 (BT-549) | GI50 (CAKI-1) | GI50 (CCRF-CEM) | GI50 (DU-145) | GI50 (EKVX) | GI50 (HCC 2998) | GI50 (HT-29) | GI50 (MCF7) | GI50 (MDA-MB-435) | GI50 (Malme-3M) | GI50 (NCI-H23) | GI50 (NCI-H460) | GI50 (SF-268) | GI50 (SF-295) | GI50 (SK-MEL-28) | GI50 (TK-10) | GI50 (U-251) | GI50 (UACC-62) | GI50 (Hs-578T) |
| --- | --- | --- | --- | --- | --- | --- | --- | --- | --- | --- | --- | --- | --- | --- | --- | --- | --- | --- | --- | --- |
| CSC1=C(C)C(/C=N/Nc2ccc([N+](=O)[O-])cc2)=C(C)N(c2ccccc2)S1(=O)=O | 44.9 µM (inactive) | 20.8 µM (inactive) | > 100 µM (inactive) | > 100 µM (inactive) | > 100 µM (inactive) | 33.9 µM (inactive) | 25.8 µM (inactive) | 28.5 µM (inactive) | 32.4 µM (inactive) | > 100 µM (inactive) | 94.2 µM (inactive) | 5.93 µM (inactive) | 16.6 µM (inactive) | > 100 µM (inactive) | 6.17 µM (inactive) | > 100 µM (inactive) | > 100 µM (inactive) | > 100 µM (inactive) | 74.1 µM (inactive) | – |
| N#CCC1C2CC3C(C2=O)C13 (stereo unspecified) | > 100 µM (inactive) | – | > 100 µM (inactive) | > 100 µM (inactive) | > 100 µM (inactive) | > 100 µM (inactive) | > 100 µM (inactive) | > 100 µM (inactive) | > 100 µM (inactive) | > 100 µM (inactive) | > 100 µM (inactive) | > 100 µM (inactive) | > 100 µM (inactive) | > 100 µM (inactive) | > 100 µM (inactive) | > 100 µM (inactive) | > 100 µM (inactive) | > 100 µM (inactive) | > 100 µM (inactive) | > 100 µM (inactive) |
| CCOC1C=CCCO1 (stereo unspecified) | > 100 µM (inactive) | – | > 100 µM (inactive) | > 100 µM (inactive) | > 100 µM (inactive) | > 100 µM (inactive) | 1.55 µM (inactive) | > 100 µM (inactive) | > 100 µM (inactive) | > 100 µM (inactive) | > 100 µM (inactive) | > 100 µM (inactive) | > 100 µM (inactive) | > 100 µM (inactive) | > 100 µM (inactive) | > 100 µM (inactive) | > 100 µM (inactive) | – | > 100 µM (inactive) | > 100 µM (inactive) |
| COc1ccc(/C=C2/C(=O)N(C(=O)c3ccccc3O)N=C2C)cc1OC | 0.162 µM (active) | 0.388 µM (active) | 2.46 µM (inactive) | 0.337 µM (active) | 0.643 µM (active) | 1.38 µM (inactive) | > 24.3 µM (inactive) | 16.8 µM (inactive) | 0.361 µM (active) | 0.355 µM (active) | 0.849 µM (active) | 0.248 µM (active) | 0.34 µM (active) | 0.556 µM (active) | 0.365 µM (active) | 23.9 µM (inactive) | 10.8 µM (inactive) | 0.202 µM (active) | 0.147 µM (active) | – |
| Cc1cc(=O)[nH]c(-n2[nH]c(C)c(CCO)c2=O)n1 | > 100 µM (inactive) | – | > 100 µM (inactive) | > 100 µM (inactive) | > 100 µM (inactive) | > 100 µM (inactive) | > 100 µM (inactive) | > 100 µM (inactive) | > 100 µM (inactive) | > 100 µM (inactive) | > 100 µM (inactive) | > 100 µM (inactive) | > 100 µM (inactive) | > 100 µM (inactive) | > 100 µM (inactive) | > 100 µM (inactive) | > 100 µM (inactive) | > 100 µM (inactive) | > 100 µM (inactive) | > 100 µM (inactive) |
| COC(=O)c1cc(C(=O)OC)cc(-c2ccc3c(c2)-c2nc4c(c(-c5ccc(OC)cc5)c2CC3)CCc2ccc(-c3cc(C(=O)OC)cc(C(=O)OC)c3)cc2-4)c1 | > 100 µM (inactive) | > 100 µM (inactive) | > 100 µM (inactive) | – | > 100 µM (inactive) | 16.9 µM (inactive) | > 100 µM (inactive) | – | > 100 µM (inactive) | > 100 µM (inactive) | > 100 µM (inactive) | > 100 µM (inactive) | > 100 µM (inactive) | > 100 µM (inactive) | > 100 µM (inactive) | > 100 µM (inactive) | > 100 µM (inactive) | > 100 µM (inactive) | > 100 µM (inactive) | – |
